The subject of one experiment is PC12 cells. Briefly: Neuroprotective activity against Aβ25-35 induced PC12 cell death by MTT assay. The experiment is classed as cell-based. Conditions: for Cell viability: Aβ25-35-induced cell damage in PC12 cells, control = 1.000, model (Aβ25-35) = 0.633, test concentration not given; for EC50: Rattus norvegicus. The procedure:
Meanwhile, all isolated compounds were evaluated for their neuroprotective potency against the Aβ25-35 induced PC12 cell death by MTT assay.
A cell viability assay was conducted to test the cytotoxic effects of the compounds on PC12 cells. Meanwhile, the neuroprotective activity of all compounds against the Aβ25-35 induced PC12 cell death by MTT assay. PC12 cells were divided into four groups: normal control, model, positive control (Resveratrol), and isolates intervention groups (1, 10, 20, 40, 60, 80, 100 μmol/L). Detailed experimental procedures and experimental data can be found in the Supporting Information.
Cell culture. […] The cells were maintained at 37°C in a humidified atmosphere containing 5% CO2. The culture medium was replaced every three days, and the cells were passaged when they reached 70% confluency.
Preparation of Aβ25-35. Aβ25-35 was dissolved in sterile double-distilled water to prepare a 2 mM stock solution. The solution was then incubated at 37°C for 7 days to induce aggregation.
MTT assay for cell viability. PC12 cells were divided into four groups: normal control, model, positive control (Resveratrol), and isolates intervention groups (1, 10, 20, 40, 60, 80, 100 μmol/L). The cells were seeded in 96-well plates at an appropriate density with 200 μL medium per well and were cultured for 24 hours. The positive control and intervention groups were pretreated with different concentrations of drug-containing medium for 2 hours, after which 2 μL of Aβ25-35 was added to each well of the model, positive control, and intervention groups for 24 hours. After the treatment, 20 μL of […] MTT solution was added to each well and incubated for 4 hours. The medium was then removed, and 150 μL of DMSO was added to each well. The plate was shaken until the formazan product was completely dissolved. The absorbance was measured at 570 nm using a spectrophotometer.
Background: Tetrazolium assays rely on reduction of a dye to a coloured formazan, in cell work by metabolically active cells.

For experiment [1], the target named is acetylcholinesterase (AChE) (Homo sapiens, UniProt P22303). Put plainly: biochemical. The procedure: The first and the main class of drugs currently used for AD are the AChE inhibitors and are widely used for the symptomatic treatment of mild-moderate AD [2]. All alkaloids were screened toward AChE via improved Ellman’s method (Supporting Information).
The compounds were prepared in DMSO and diluted in buffer solution to different concentrations. In a 96-well plate, 140 μL of PBS (pH = 8) buffer, 20 μL of all the sample solutions were transferred in each well, and 20 μL of 0.2 U/mL AChE solution were added. The mixture was incubated at 37°C for 10 minutes. Subsequently, 10 μL of 3 mM 5,5'-dithiobis-(2-nitrobenzoic acid) (DTNB) and 10 μL of 15 mM acetylthiocholine (ATCl) were added, followed by reaction at 37 °C for 20 minutes. […] Each experimental group was set up with three replicate wells, and huperzine A was used as the positive control.

[2] abbreviates: PC-12, against Aβ25-35-induced PC12 cell damage, MTT, resveratrol as positive control, read-out: EC50 (μM), neuroprotective effect.
[3] abbreviates: PC-12, read-out: EC50 (μM), neuroprotective effect.

Like-named read-outs stand apart in the source and are kept apart here.

Sequence of acetylcholinesterase (AChE) (P22303 32-614, species assumed): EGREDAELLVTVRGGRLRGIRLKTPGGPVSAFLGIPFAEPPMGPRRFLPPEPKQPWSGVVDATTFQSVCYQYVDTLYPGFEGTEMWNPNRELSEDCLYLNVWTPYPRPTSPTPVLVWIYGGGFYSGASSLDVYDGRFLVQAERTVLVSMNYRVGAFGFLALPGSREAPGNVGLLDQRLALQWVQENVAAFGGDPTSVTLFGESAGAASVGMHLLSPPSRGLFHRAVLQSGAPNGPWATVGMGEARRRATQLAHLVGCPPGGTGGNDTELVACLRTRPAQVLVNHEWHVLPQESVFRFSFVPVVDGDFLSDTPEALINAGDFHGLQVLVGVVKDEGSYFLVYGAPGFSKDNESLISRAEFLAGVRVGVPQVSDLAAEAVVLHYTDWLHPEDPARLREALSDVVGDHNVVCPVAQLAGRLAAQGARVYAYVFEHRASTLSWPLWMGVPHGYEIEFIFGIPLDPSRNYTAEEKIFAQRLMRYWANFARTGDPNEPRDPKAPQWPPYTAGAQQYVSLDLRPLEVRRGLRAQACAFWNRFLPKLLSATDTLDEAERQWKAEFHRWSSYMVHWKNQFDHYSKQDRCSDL

`CC1N2CCCCC2C23CC(CC4CCCN1C42)C1CCCCN1C3` (racemic) [Compound 1, (±)-Ormohenin A] displayed a Cell viability in the experiment on PC12 cells (MTT) of 0.641 ± 0.009.
The same measure, in the same setting: the figure for `C1CC[C@@H]([C@@]23C[C@H](C[C@H]4CCCN[C@@H]42)[C@@H]2CCCCN2C3)NC1` (racemic) [Compound 6, (±)-ormosanine] is 0.704 ± 0.038.
On the same count and under the same terms, to `C[C@@H]1N2CCCC[C@H]2[C@@]23C[C@H](C=C4CCCN1[C@@H]42)[C@@H]1CCCCN1C3` [Compound 4, (−)-ormohenin D] belongs 0.629 ± 0.013; to `O=c1cccc2n1C[C@H]1C[C@@H]2CN2CC=CC[C@@H]12` [Compound 8, (7S,9S,11S)-15,16-dehydroanagyrine], 0.662 ± 0.041; to `O=C1CC=C[C@@H]2[C@@H]3C[C@H](CN12)[C@H]1CCCCN1C3` [Compound 7, (6R,7S,9S,11R)-4,5-dehydro-α-isolupanine], 0.650 ± 0.009.
On the same count and under the same terms, to `O=c1cccc2n1C[C@H]1C[C@@H]2CN2CCCC[C@@H]12` [Compound 10, (+)-anagyrine] belongs 0.645 ± 0.011; to `O=C1CCC[C@@H]2[C@@H]3C[C@H](CN12)[C@H]1CCCCN1C3` [Compound 11, (+)-α-isolupanine], 0.653 ± 0.027.
What is called EC50 is the concentration at which the effect is half-maximal. `Oc1ccc(/C=C/c2cc(O)cc(O)c2)cc1` [Resveratrol, reference compound]: the Cell viability in the experiment with PC12 cells (MTT) came to 0.82 ± 0.039. In the experiment on PC12 cells (setting [2]), the EC50 was found to be 5.99 µM.
With `C1CC[C@H]([C@@]23C[C@H](C[C@H]4CCCN[C@@H]42)[C@@H]2CCCCN2C3)NC1` (racemic) [Compound 5, (±)-18-epiormosanine], in the experiment with PC12 cells (MTT), the Cell viability is 0.698 ± 0.032.
Usually IC50 stands for the midpoint of a concentration-inhibition curve. In experiment [1], `O=c1cccc2n1C[C@@H]1CNC[C@H]2C1` [Compound 12, (+)-cytisine] registered an IC50 of 6.85 ± 1.2 µM. This compound displayed a Cell viability with PC12 cells (MTT) of 0.934 ± 0.031. Further, the EC50 with PC12 cells (setting [3]) is 7.99 µM.
As to `CC1N2CCCCC2C23CC(CC4CCCN1C42)C1CCCCN1C3` (single isomer, unassigned; (-)) [Compound 3, (−)-ormohenin C], the IC50 in experiment [1] (improved Ellman's method, huperzine A as positive control, read-out: AChE inhibitory activity IC50) turned out to be 142 ± 19.6 µM. This compound also yielded a Cell viability in the experiment on PC12 cells (MTT) of 0.899 ± 0.061. For the same compound, the EC50 with PC12 cells (setting [2]) was 15.5 µM.
`O=C1CCC[C@@H]2[C@@H]3C[C@H](CN12)[C@@H]1CCCCN1C3` [Compound 9, (+)-lupanine] gave a Cell viability with PC12 cells (MTT) of 0.974 ± 0.065. In addition, the EC50 with PC12 cells (setting [3]) came to 10.4 µM.
As to `CC1N2CCCCC2C23CC(CC4CCCN1C42)C1CCCCN1C3` (racemic) [Compound 2, (±)-Ormohenin B], the Cell viability with PC12 cells (MTT) turned out to be 0.693 ± 0.024.

Values taken from PMC12378240, “(+)-/(−)-Ormohenins A and B, two pairs of ormosanine-type enantiomers and their derivatives with neuroprotective activity from Ormosia henryi Prain” (Natural Products and Bioprospecting, 2025).
